Measured values taken from patent EP2649091B1, “IMMUNE RESTRICTED PEPTIDES WITH INCREASED EFFICACY” (Stichting Het Nederlands Kanker Instituut, priority 2010, dated 2012).

What was measured:
[1] = test system: SVYDFFVWL (TRP-2 180-188) reactive T cells; experiment: T cell activation time course assay, IFNγ production (FACS), TRP-2 epitope; settings: for % CD8+ T cells producing IFN-γ peptide concentrations in picomolar 24H 0.5 / Geometric mean IFN-γ in arbitrary fluorescence units peptide concentrations in picomolar 24H 0.5 / % CD8+ T cells producing IFN-γ peptide concentrations in picomolar 48H 0.5 / Geometric mean IFN-γ in arbitrary fluorescence units peptide concentrations in picomolar 48H 0.5: peptide 0.5 pM; for % CD8+ T cells producing IFN-γ peptide concentrations in picomolar 24H 50 / % CD8+ T cells producing IFN-γ peptide concentrations in picomolar 48H 50 / Geometric mean IFN-γ in arbitrary fluorescence units peptide concentrations in picomolar 24H 50 / Geometric mean IFN-γ in arbitrary fluorescence units peptide concentrations in picomolar 48H 50: peptide 50 pM; for % CD8+ T cells producing IFN-γ peptide concentrations in picomolar 24H 5·10^3 / Geometric mean IFN-γ in arbitrary fluorescence units peptide concentrations in picomolar 24H 5·10^3 / % CD8+ T cells producing IFN-γ peptide concentrations in picomolar 48H 5·10^3 / Geometric mean IFN-γ in arbitrary fluorescence units peptide concentrations in picomolar 48H 5·10^3: peptide 5·10^3 pM
HLA-A0201 = HLA-A0201 (Homo sapiens, UniProt P04439, D140Y/D185E/D98H/E176V/E277Q/G131W/G231S/I119V/I121R/I166T/I218V/L300P/L318F/N151K/N90K/P208A/P217A/Q86G/Q94H/R138H/R169H/T345S); assay type: binding

Row | Substance | % CD8+ T cells producing IFN-γ peptide concentrations in picomolar 24H 0.5 [1] [%] | Geometric mean IFN-γ in arbitrary fluorescence units peptide concentrations in picomolar 24H 0.5 [1] | % CD8+ T cells producing IFN-γ peptide concentrations in picomolar 24H 50 [1] [%] | % CD8+ T cells producing IFN-γ peptide concentrations in picomolar 24H 5·10^3 [1] [%] | Geometric mean IFN-γ in arbitrary fluorescence units peptide concentrations in picomolar 24H 5·10^3 [1] | % CD8+ T cells producing IFN-γ peptide concentrations in picomolar 48H 0.5 [1] [%] | Geometric mean IFN-γ in arbitrary fluorescence units peptide concentrations in picomolar 48H 0.5 [1] | % CD8+ T cells producing IFN-γ peptide concentrations in picomolar 48H 50 [1] [%] | % CD8+ T cells producing IFN-γ peptide concentrations in picomolar 48H 5·10^3 [1] [%] | Geometric mean IFN-γ in arbitrary fluorescence units peptide concentrations in picomolar 48H 5·10^3 [1] | % inhibition at T=4H and T=24H FP 4H (HLA-A0201) [%] | % inhibition at T=4H and T=24H FP 24H (HLA-A0201) [%] | % inhibition at T=4H and T=24H FP 4h (HLA-A0201) [%] | % inhibition at T=4H and T=24H FP 24h (HLA-A0201) [%] | Geometric mean IFN-γ in arbitrary fluorescence units peptide concentrations in picomolar 24H 50 [1] | Geometric mean IFN-γ in arbitrary fluorescence units peptide concentrations in picomolar 48H 50 [1]
1 | [CSME][2-AOC]YDFFVWL | 1 | 71 arbitrary fluorescence units | 20 | 30 | 264 arbitrary fluorescence units | 0 | 68 arbitrary fluorescence units | 5 | 33 | 224 arbitrary fluorescence units | 88 | 76 | 88 | 76 |  | 
2 | [CSME][2-AOC]YDFFVW[PRG] | 0 | 67 arbitrary fluorescence units | 1 | 7 | 84 arbitrary fluorescence units | 0 | 67 arbitrary fluorescence units | 0 | 0 | 72 arbitrary fluorescence units |  |  | 98 | 89 | 73 arbitrary fluorescence units | 6 arbitrary fluorescence units
3 | [CSME][CpALA]YDFFVW[PRG] | 1 | 69 arbitrary fluorescence units | 5 | 27 | 147 arbitrary fluorescence units | 0 | 58 arbitrary fluorescence units | 1 | 14 | 105 arbitrary fluorescence units |  |  | 85 | 83 | 73 arbitrary fluorescence units | 68 arbitrary fluorescence units
4 | [CSME][NVA]YDFFVW[PRG] | 0 | 67 arbitrary fluorescence units | 6 | 26 | 175 arbitrary fluorescence units | 1 | 93 arbitrary fluorescence units | 1 | 26 | 130 arbitrary fluorescence units |  |  | 78 | 78 | 80 arbitrary fluorescence units | 67 arbitrary fluorescence units
5 | [PHG][2-AOC]YDFFVWL | 0 | 85 arbitrary fluorescence units | 14 | 30 | 224 arbitrary fluorescence units | 1 | 75 arbitrary fluorescence units | 3 | 33 | 184 arbitrary fluorescence units |  |  | 90 | 75 | 95 arbitrary fluorescence units | 
6 | [PHG][2-AOC]YDFFVW[PRG] | 0 | 95 arbitrary fluorescence units | 1 | 20 | 120 arbitrary fluorescence units | 1 | 79 arbitrary fluorescence units | 0 | 0 | 78 arbitrary fluorescence units |  |  | 83 | 78 | 68 arbitrary fluorescence units | 78 arbitrary fluorescence units
7 | [PHG][CpALA]YDFFVWL | 1 | 71 arbitrary fluorescence units | 12 | 30 | 221 arbitrary fluorescence units | 0 | 70 arbitrary fluorescence units | 6 | 34 | 183 arbitrary fluorescence units |  |  | 77 | 75 | 87 arbitrary fluorescence units | 
8 | [PHG][NVA]YDFFVWL | 0 | 76 arbitrary fluorescence units | 15 | 29 | 263 arbitrary fluorescence units | 0 | 85 arbitrary fluorescence units | 2 | 30 | 188 arbitrary fluorescence units |  |  | 79 | 76 | 94 arbitrary fluorescence units | 
9 | [PHG][NVA]YDFFVW[ALG] | 0 | 84 arbitrary fluorescence units | 6 | 35 | 185 arbitrary fluorescence units | 1 | 64 arbitrary fluorescence units | 1 | 22 | 142 arbitrary fluorescence units |  |  | 76 | 73 | 71 arbitrary fluorescence units | 64 arbitrary fluorescence units
10 | [PHG][NVA]YDFFVW[PRG] | 1 | 89 arbitrary fluorescence units | 6 | 33 | 183 arbitrary fluorescence units | 0 | 66 arbitrary fluorescence units | 1 | 21 | 139 arbitrary fluorescence units |  |  | 83 | 78 | 73 arbitrary fluorescence units | 61 arbitrary fluorescence units
